The target in experiment [1] is T1, VirB11 ATPase HP0525 (Helicobacter pylori, UniProt Q7BK04). Briefly: colorimetric in vitro ATPase assay (release of inorganic phosphate), IC50 estimation. The class given is biochemical. The conditions noted are these: for inhibitory activity in words: ATPase assay. How it is done: The HP0525 protein was produced recombinantly in Escherichia coli and purified to high purity as described previously.[10] The ATPase activity of HP0525 was measured by monitoring the release of inorganic phosphate (Pi) using an in vitro ATPase assay (see Section 4 and SI). Initially, the inhibitory effects of the compounds were evaluated by performing the ATPase assay with and without compound present at concentrations of 500 μM (or 250 μM), 50 μM and 5 μM (data not shown). The compounds with inhibitory activities were further analyzed for dose-dependency by estimating their IC50s (Fig. 2).
T1 sequence (Q7BK04 entry or part of it): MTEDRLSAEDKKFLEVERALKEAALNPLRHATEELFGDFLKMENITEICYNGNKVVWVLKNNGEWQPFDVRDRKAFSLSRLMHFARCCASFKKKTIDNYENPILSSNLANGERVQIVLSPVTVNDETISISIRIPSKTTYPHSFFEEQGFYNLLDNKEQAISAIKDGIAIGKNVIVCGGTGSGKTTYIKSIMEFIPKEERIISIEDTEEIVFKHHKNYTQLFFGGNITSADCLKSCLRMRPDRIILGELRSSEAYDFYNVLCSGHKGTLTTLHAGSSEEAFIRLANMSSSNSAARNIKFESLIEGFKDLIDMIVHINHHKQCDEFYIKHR
(§1) Assays for the activity of the HP0525 inhibitors were performed using a colorimetric ATPase assay (Innova Biosciences), see SI for details. The enzymatic reactions were performed in 96-well format for 30 min at 37 °C followed by measuring the absorbance at 620 nm, detecting the presence of inorganic phosphate product. […] Michaelis–Menten kinetics were performed under the same conditions as above but with various concentrations of ATP ranging from 0 to 500 μM, with and without 10 μM of compound 11. Both IC50 and Michaelis–Menten kinetics measurements were made in triplicate.
ATPase activity measurements were carried out using a colorimetric in vitro ATPase assay kit (Innova Biosciences), using 96-well ELISA microplates (Greiner Bio-One) with reaction volumes of 100 µL in each well. Multi-pipettes with either 8 tips or 96 tips were used. Enzymatic reactions were performed for 30 min at 37 °C followed by measuring the absorbance at 620 nm, detecting the presence of inorganic phosphate product. Each reaction contained 100 mM Tris–HCl, pH 7.5; 2.5 mM MgCl2; 125 μM ATP; 5% DMSO; 25 mM NaCl; 0.5 mM DTT and 0.053 μM HP0525, with or without inhibitor. In detail, the assay can be described in steps. Step 1: 48 μL of substrate buffer mix (providing the components Tris–HCl, pH 7.5; MgCl2; ATP and DMSO) was dispensed to each well. Step 2: 2 μL of compound (solublized in DMSO) was added to corresponding well. Step 3: Enzymatic reaction was started by the addition of 50 μL of protein (in 50 mM Tris-HCl, pH 7.5; 50 mM NaCl and 1 mM DTT) to the wells. Step 4: Reaction plates were incubated at 37 degrees for 30 min. Step 5: The reaction was stopped by the addition of 25 uL of Gold mix reagent, followed by vigorous mixing. After 2-5 min, 10 uL of stabilizer solution was added to the reaction. Step 6: After an additional 30 min incubation at room temperature, the absorbance at 620 nm was measured using a microplate reader.
In the negative control, the protein was added after the Gold mix, as described in the standard protocol of the Innova Biociences ATPase assay kit. As an alternative negative control, providing equivalent readouts, 10 mM EDTA could also be added at Step 2, then removing the catalytically essential Mg ions from the active site of HP0525.
(§2) Michaelis-Menten kinetics were performed under the same conditions as above but with various concentrations of ATP ranging from 0 to 500 μM, with and without 10 μM of compound 11. Negative controls for each ATP concentration were used. GraphPad Prism version 5.0d for Mac OS X (GraphPad Software, San Diego California USA, www.graphpad.com) was used for the IC50 calculations using the Prism equation for non-linear normalized dose-response ‘Log(Inhibitor) vs. normalized response’ with Hill slope set to 1; and for Michaelis-Menten and Lineweaver-Burk analysis.

Experiment [2] deals with T1, VirB11 ATPase HP0525. Nature of the experiment: steady-state (Michaelis–Menten / Lineweaver–Burk) kinetics, mode of inhibition. The class given is biochemical. The following applies: ATP 0 to 500 μM, with and without 10 μM of compound. The protocol:
as §1, §2

[3] abbreviates: 125 μM ATP, 0.053 μM HP0525, 5% DMSO, pH 7.5, 30 min at 37 °C, triplicate, read-out: IC50.

Like-named read-outs stand apart in the source and are kept apart here. Where only a bound is given, the exact number is not on record here.

In the case of “4-methyl-N-[2-(2-naphthyl)imidazo[1,2-a]pyrazine-8-yl]benzenesulfonamide [Compound 1]”, on VirB11 ATPase HP0525 [1] (setting [3]), the IC50 was 77 ± 16 µM.

For `Cc1ccc(S(=O)(=O)Nc2nccn3c(-c4ccccc4Oc4ccccc4)cnc23)cc1` [Compound 2], the IC50 at VirB11 ATPase HP0525 [1] is 96 ± 42 µM.

Regarding `COc1ccc(-c2cnc3c(NS(=O)(=O)c4ccc(C)cc4)nccn23)cc1OC` [Compound 3, N-[3-(3,4-dimethoxyphenyl)imidazo[1,2-a]pyrazine-8-yl]-4-methyl-benzenesulfonamide], the IC50 at VirB11 ATPase HP0525 [1] is 144 ± 14 µM.

On to `Cc1ccc(S(=O)(=O)Nc2nccn3c(-c4cc(C)cc(C)c4)cnc23)cc1` [Compound 4], for which, at VirB11 ATPase HP0525 [1], the IC50 is 154 ± 22 µM.

Turning to `Cc1ccc(S(=O)(=O)Nc2ccc(Nc3nccn4c(-c5ccc6ccccc6c5)cnc34)cc2)cc1` [Compound 5, 4-methyl-N-[4-[3-(2-naphthyl)imidazo[1,2-a]pyrazine-8-yl]aminophenyl]benzenesulfonamide], the IC50 at VirB11 ATPase HP0525 [1] is 20 ± 3 µM.

`Cc1ccc(S(=O)(=O)Nc2ccc(Nc3nccn4c(-c5ccsc5)cnc34)cc2)cc1` [Compound 6, 4-methyl-N-[4-[[3-(3-thienyl)imidazo[1,2-a]pyrazine-8-yl]amino]phenyl]benzenesulfonamide]: on VirB11 ATPase HP0525 [1], the IC50 was 48 ± 7 µM.

With `Cc1ccc(S(=O)(=O)Nc2nccn3cc(-c4ccc5ccccc5c4)nc23)cc1` [Compound 7, 4-methyl-N-[2-(2-naphthyl)imidazo[1,2-a]pyrazine-8-yl]benzenesulfonamide], the IC50 on VirB11 ATPase HP0525 [1] is 88 ± 14 µM.

In the case of `Cc1ccc(S(=O)(=O)Nc2nccn3cc(-c4ccccc4Oc4ccccc4)nc23)cc1` [Compound 8, 4-methyl-N-[2-(2-phenoxyphenyl)imidazo[1,2-a]pyrazine-8-yl]benzenesulfonamide], the IC50 on VirB11 ATPase HP0525 [1] is 82 ± 14 µM.

In the case of `COc1ccc(-c2cn3ccnc(NS(=O)(=O)c4ccc(C)cc4)c3n2)cc1OC` [Compound 9, N-[2-(3,4-dimethoxylphenyl)imidazo[1,2-a]pyrazine-8-yl]-4-methyl-benzenesulfonamide], on VirB11 ATPase HP0525 [1], the concentration for half-maximal inhibition (IC50) is 167 ± 43 µM.

`Cc1ccc(S(=O)(=O)Nc2nccn3cc(-c4cc(C)cc(C)c4)nc23)cc1` [Compound 10, N-[2-(3,5-dimethylphenyl)imidazo[1,2-a]pyrazine-8-yl]-4-methylbenzenesulfonamide]: the IC50 on VirB11 ATPase HP0525 [1] is 133 ± 16 µM.

For the compound `Cc1ccc(S(=O)(=O)Nc2ccc(Nc3nccn4cc(-c5ccc6ccccc6c5)nc34)cc2)cc1` [Compound 11, 4-methyl-N-[4-[[2-(2-naphthyl)imidazo[1,2-a]pyrazine-8-yl]amino]phenyl]benzenesulfonamide], at VirB11 ATPase HP0525 [2], the mode of inhibition entry is listed as “competitive inhibitor”. In addition, the IC50 at VirB11 ATPase HP0525 [1] was 6 ± 1 µM.

As to `Cc1ccc(S(=O)(=O)Nc2ccc(Nc3nccn4cc(-c5ccsc5)nc34)cc2)cc1` [Compound 12, 4-methyl-N-[4-[[2-(3-thienyl)imidazo[1,2-a]pyrazine-8-yl]amino]phenyl]benzenesulfonamide], the IC50 at VirB11 ATPase HP0525 [1] was 99 ± 18 µM.

Take `Cc1ccc(S(=O)(=O)Nc2ccc(Nc3nccn4cc(-c5ccccc5Oc5ccccc5)nc34)cc2)cc1` [Compound 13, 4-Methyl-N-(4-(2-(2-phenoxyphenyl)imidazo[1,2-a]pyrazin-8-ylamino)phenyl)benzenesulfonamide]: the IC50 on VirB11 ATPase HP0525 [1] is 18 ± 4 µM.

With `Nc1nccn2cc(-c3ccc4ccccc4c3)nc12` [Compound 25, 2-(Naphthalen-2-yl)imidazo[1,2-a]pyrazin-8-amine], on VirB11 ATPase HP0525 [1], the IC50 was greater than 1000 µM and the “inhibitory activity in words” value is “complete loss of activity”.

Turning to `Nc1ccc(Nc2nccn3cc(-c4ccc5ccccc5c4)nc23)cc1` [Compound 26, N^’-(2-(Naphthalen-2-yl)imidazo[1,2-a]pyrazin-8-yl)benzene-1,4-diamine], the concentration for half-maximal inhibition (IC50) at VirB11 ATPase HP0525 [1] is 18 ± 5 µM.

As to `CS(=O)(=O)Nc1ccc(Nc2nccn3cc(-c4ccc5ccccc5c4)nc23)cc1` [Compound 27, N-(4-(2-(Naphthalen-2-yl)imidazo[1,2-a]pyrazin-8-ylamino)phenyl)methanesulfonamide], on VirB11 ATPase HP0525 [1], the IC50 is 61 ± 28 µM.

Turning to `Cc1ccc(S(=O)(=O)Nc2ccc(Oc3nccn4cc(-c5ccc6ccccc6c5)nc34)cc2)cc1` [Compound 28, 4-Methyl-N-(4-(2-(naphthalen-2-yl)imidazo[1,2-a]pyrazin-8-yloxy)phenyl)benzenesulfonamide], the IC50 on VirB11 ATPase HP0525 [1] is 29 ± 9 µM.

Regarding `Cc1ccc(S(=O)(=O)Nc2ccc(CNc3nccn4cc(-c5ccc6ccccc6c5)nc34)cc2)cc1` [Compound 29, 4-Methyl-N-(4-((2-(naphthalen-2-yl)imidazo[1,2-a]pyrazin-8-ylamino)methyl)phenyl)benzenesulfonamide], the IC50 on VirB11 ATPase HP0525 [1] was 75 ± 35 µM.

Turning to `Cc1ccc(S(=O)(=O)NCCCNc2nccn3cc(-c4ccc5ccccc5c4)nc23)cc1` [Compound 30, 4-Methyl-N-(3-(2-(naphthalen-2-yl)imidazo[1,2-a]pyrazin-8-ylamino)propyl)benzenesulfonamide], at VirB11 ATPase HP0525 [1], the IC50 is 58 ± 38 µM.

On to `Cc1ccc(S(=O)(=O)NCCNc2nccn3cc(-c4ccc5ccccc5c4)nc23)cc1` [Compound 31, 4-Methyl-N-(2-(2-(naphthalen-2-yl)imidazo[1,2-a]pyrazin-8-ylamino)ethyl)benzenesulfonamide], for which the IC50 on VirB11 ATPase HP0525 [1] is 7 ± 2 µM.

As for `c1cncc(-c2cccc(Nc3nccn4cc(-c5ccc6ccccc6c5)nc34)c2)c1` [Compound 32, 2-(Naphthalen-2-yl)-N-(3-(pyridin-3-yl)phenyl)imidazo[1,2-a]pyrazin-8-amine], the IC50 at VirB11 ATPase HP0525 [1] was 4 ± 1 µM.

With `O=S(=O)(Nc1ccc(Nc2nccn3cc(-c4ccc5ccccc5c4)nc23)cc1)c1cccc2cccnc12` [Compound 33, N-(4-((2-(Naphthalen-2-yl)imidazo[1,2-a]pyrazin-8-yl)amino)phenyl)quinoline-8-sulfonamide], at VirB11 ATPase HP0525 [1], the IC50 is 7 ± 2 µM.

Regarding `O=S(=O)(Nc1cccc(Nc2nccn3cc(-c4ccc5ccccc5c4)nc23)c1)c1cccc2cccnc12` [Compound 34, N-(3-((2-(Naphthalen-2-yl)imidazo[1,2-a]pyrazin-8-yl)amino)phenyl)quinoline-8-sulfonamide], the IC50 at VirB11 ATPase HP0525 [1] is 7 ± 2 µM.

In the case of `Cc1ccc(S(=O)(=O)Nc2ccc(Nc3nccn4ccnc34)cc2)cc1` [Compound 35, N-(4-(Imidazo[1,2-a]pyrazin-8-ylamino)phenyl)-4-methylbenzenesulfonamide], at VirB11 ATPase HP0525 [1], the IC50 was greater than 1000 µM and the “inhibitory activity in words” value is “complete loss of activity”.

In the case of `Cc1ccc(S(=O)(=O)Nc2ccc(Nc3nccn4cc(-c5cnc6ccccc6n5)nc34)cc2)cc1` [Compound 36, 4-Methyl-N-(4-(2-(quinoxalin-2-yl)imidazo[1,2-a]pyrazin-8-ylamino)phenyl)benzenesulfonamide], the IC50 at VirB11 ATPase HP0525 [1] is 28 ± 6 µM.

Take “N-(2-((6-Bromo-2-(naphthalen-2-yl)imidazo[1,2-a]pyrazin-8-yl)amino)ethyl)-4- methylbenzenesulfonamide [Compound 38]”: the IC50 on VirB11 ATPase HP0525 [1] (setting [3]) was 77 ± 20 µM.

In the case of “N-(4-((6-Bromo-2-(naphthalen-2-yl)imidazo[1,2-a]pyrazin-8-yl)amino)phenyl)-4- methylbenzenesulfonamide [Compound 37]”, on VirB11 ATPase HP0525 [1] (setting [3]), the concentration for half-maximal inhibition (IC50) was 6 ± 2 µM.

The term IC50 denotes the concentration needed to halve the response being measured.

The record behind these values is PMC4339681, “2- and 3-substituted imidazo[1,2-a]pyrazines as inhibitors of bacterial type IV secretion” (Bioorganic & Medicinal Chemistry, 2014).
